# Test results as given in article PMC8462401 (Blood, 2021).
# What was measured:
# FGFR3 = FGFR3 (Homo sapiens, UniProt P22607); experiment: BaF3 panel of […] receptor tyrosine kinases, […] inhibition at […]; assay type: cell-based; conditions: BaF3, read-out: % inhibition at 100 nM
# [1] = target: vascular endothelial growth factor receptor 1 (Homo sapiens, UniProt P17948); experiment: as above; assay type: cell-based; conditions: BaF3, read-out: % inhibition at 100 nM
# MER = target: T1, MER (Homo sapiens, UniProt Q12866); experiment: radiometric kinase assay at ATP Km; assay type: biochemical
# T1 sequence (Q12866 21-999): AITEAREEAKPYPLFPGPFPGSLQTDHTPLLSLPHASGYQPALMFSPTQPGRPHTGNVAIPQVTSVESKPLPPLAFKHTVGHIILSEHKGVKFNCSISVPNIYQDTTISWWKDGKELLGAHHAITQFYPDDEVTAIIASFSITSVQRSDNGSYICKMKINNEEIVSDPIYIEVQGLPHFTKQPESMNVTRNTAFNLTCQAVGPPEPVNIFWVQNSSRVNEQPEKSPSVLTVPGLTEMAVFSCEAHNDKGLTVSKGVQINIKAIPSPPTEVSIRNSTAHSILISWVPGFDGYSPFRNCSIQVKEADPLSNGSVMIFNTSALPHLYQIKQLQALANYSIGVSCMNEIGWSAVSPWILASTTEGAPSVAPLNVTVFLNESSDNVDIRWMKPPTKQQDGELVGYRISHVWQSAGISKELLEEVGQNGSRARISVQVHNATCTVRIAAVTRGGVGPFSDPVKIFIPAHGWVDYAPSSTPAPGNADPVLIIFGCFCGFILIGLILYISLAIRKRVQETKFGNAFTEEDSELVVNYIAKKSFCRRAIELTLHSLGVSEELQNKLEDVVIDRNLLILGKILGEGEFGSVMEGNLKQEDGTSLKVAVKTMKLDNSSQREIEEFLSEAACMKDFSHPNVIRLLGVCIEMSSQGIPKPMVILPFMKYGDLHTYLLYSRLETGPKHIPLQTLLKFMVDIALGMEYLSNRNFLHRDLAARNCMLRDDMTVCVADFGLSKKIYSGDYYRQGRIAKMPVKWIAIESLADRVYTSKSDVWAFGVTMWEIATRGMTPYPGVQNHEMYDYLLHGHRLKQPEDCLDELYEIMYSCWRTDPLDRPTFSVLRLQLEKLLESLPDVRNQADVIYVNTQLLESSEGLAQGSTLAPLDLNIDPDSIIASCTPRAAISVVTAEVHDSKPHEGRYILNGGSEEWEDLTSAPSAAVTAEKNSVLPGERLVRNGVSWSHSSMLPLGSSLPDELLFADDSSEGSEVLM
# FGFR3, sequence (P22607 23-806): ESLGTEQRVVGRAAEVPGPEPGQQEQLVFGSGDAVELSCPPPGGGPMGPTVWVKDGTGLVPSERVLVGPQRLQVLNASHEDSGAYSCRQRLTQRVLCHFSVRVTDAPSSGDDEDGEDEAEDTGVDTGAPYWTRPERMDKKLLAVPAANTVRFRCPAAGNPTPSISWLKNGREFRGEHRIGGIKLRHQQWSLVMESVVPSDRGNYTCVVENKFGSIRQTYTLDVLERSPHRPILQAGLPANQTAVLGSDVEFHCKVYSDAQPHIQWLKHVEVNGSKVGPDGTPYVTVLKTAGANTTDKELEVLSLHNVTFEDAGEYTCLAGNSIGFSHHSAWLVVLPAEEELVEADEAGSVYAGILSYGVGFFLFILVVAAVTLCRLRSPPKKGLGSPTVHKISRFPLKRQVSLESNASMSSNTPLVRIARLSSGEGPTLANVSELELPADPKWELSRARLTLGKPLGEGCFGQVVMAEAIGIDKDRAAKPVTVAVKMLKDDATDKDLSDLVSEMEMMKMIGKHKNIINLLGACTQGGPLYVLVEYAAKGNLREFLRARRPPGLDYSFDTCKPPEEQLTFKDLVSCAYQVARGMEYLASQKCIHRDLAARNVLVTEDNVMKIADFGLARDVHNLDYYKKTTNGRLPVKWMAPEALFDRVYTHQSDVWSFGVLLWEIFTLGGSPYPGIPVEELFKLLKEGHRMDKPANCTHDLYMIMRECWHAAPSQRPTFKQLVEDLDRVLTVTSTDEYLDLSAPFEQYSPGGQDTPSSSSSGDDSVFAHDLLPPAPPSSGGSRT
# vascular endothelial growth factor receptor 1, sequence (P17948 27-1338): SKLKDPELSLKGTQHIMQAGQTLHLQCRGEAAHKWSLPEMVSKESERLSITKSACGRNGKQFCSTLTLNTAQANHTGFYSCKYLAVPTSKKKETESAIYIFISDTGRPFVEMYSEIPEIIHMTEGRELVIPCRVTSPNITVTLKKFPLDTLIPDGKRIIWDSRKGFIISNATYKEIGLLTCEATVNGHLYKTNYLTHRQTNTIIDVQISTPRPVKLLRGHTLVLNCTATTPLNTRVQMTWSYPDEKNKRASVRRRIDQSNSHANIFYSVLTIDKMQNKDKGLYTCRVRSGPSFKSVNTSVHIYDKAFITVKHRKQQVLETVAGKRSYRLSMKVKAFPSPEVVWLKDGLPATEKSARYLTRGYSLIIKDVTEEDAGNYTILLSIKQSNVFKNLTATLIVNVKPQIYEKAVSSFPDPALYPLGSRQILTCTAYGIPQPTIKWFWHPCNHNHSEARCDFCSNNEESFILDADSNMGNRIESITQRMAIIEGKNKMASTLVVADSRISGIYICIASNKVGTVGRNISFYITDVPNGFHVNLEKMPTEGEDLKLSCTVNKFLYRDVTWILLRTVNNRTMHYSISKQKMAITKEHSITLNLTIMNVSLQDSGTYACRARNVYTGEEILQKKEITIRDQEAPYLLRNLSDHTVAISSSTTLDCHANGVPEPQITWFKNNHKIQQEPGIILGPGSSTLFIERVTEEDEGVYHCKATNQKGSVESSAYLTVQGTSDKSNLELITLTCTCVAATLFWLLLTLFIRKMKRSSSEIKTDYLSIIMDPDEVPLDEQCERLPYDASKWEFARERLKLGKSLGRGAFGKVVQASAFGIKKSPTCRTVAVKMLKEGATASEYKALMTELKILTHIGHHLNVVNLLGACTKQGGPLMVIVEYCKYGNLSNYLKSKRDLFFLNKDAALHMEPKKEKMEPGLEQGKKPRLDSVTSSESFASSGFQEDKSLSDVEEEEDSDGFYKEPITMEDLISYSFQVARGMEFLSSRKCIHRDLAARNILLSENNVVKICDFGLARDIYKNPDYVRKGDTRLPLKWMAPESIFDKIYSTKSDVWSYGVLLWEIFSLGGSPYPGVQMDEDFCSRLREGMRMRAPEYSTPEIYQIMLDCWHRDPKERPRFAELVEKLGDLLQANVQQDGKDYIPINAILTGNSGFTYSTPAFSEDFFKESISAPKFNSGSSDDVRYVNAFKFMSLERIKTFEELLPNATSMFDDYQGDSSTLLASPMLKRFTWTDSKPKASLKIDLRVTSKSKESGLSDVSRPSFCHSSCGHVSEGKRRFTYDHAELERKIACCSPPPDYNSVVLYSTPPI
structure (smiles),measurement,setting,value
"Nc1ncc(-c2cnn(C3CCNCC3)c2)cc1-c1nnc(CC2CC2)o1 [SLC-391, 3-(5-(cyclopropylmethyl)-1,3,4-oxadiazole-2-yl)-5-(1-(piperidine-4-yl)-1H-pyrazole-4-yl)pyridine-2-amine]",inhibition at 0.1 µM,FGFR3,60%
same,inhibition at 0.1 µM,[1],60%
same,IC50,MER,44 nM
